The source made the active and inactive calls.
What was measured:
[1] = Trypanosoma cruzi growth suppression in host cells – NIH3T3 host cells, beta-gal luminescence, confirmation (AID 2044); format: functional, cell-based;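 note: intracellular parasites grown in NIH/3T3 mouse fibroblasts as host cells; luminescent beta-galactosidase reporter signal from transgenic T. cruzi replicating inside host cells; inhibitors lower the luminescence signal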
[2] = NIH3T3 cell viability loss – ATP luminescence, mouse fibroblasts, counter-screen, dose response (AID 2010); format: functional, cell-based;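 note: cells exposed to compound for about 90 hours before reading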
Cytochrome P450 2D6 = Cytochrome P450 2D6 (Homo sapiens, UniProt P10635);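 note: CYP2D6 member of a cytochrome P450 panel assay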
Chain of Cytochrome P450 2D6 (P10635 whole entry): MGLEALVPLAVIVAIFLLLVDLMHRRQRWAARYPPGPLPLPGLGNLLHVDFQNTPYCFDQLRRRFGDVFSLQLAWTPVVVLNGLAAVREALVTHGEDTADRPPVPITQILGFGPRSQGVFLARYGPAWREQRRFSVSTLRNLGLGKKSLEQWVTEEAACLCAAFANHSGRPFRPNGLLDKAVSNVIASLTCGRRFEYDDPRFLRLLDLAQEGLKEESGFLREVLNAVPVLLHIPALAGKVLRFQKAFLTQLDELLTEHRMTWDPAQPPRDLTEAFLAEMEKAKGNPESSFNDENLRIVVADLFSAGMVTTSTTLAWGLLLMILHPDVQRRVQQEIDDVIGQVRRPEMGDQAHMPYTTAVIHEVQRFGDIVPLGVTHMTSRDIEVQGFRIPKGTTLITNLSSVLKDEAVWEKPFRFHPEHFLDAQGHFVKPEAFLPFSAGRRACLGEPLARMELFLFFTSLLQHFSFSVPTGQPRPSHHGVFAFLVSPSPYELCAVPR

Streptokinase A = molecular target: T1, Streptokinase A (Streptococcus pyogenes serotype M1, UniProt P10520); test: viability-normalized secreted streptokinase activity reduction – plasminogen activation absorbance, OD405, dose response (AID 1914); format: functional, Streptococcus pyogenes M1 GAS;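 note: secreted streptokinase activity via plasminogen activation per viability signal from cell pellet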
T1 sequence (P10520 whole entry): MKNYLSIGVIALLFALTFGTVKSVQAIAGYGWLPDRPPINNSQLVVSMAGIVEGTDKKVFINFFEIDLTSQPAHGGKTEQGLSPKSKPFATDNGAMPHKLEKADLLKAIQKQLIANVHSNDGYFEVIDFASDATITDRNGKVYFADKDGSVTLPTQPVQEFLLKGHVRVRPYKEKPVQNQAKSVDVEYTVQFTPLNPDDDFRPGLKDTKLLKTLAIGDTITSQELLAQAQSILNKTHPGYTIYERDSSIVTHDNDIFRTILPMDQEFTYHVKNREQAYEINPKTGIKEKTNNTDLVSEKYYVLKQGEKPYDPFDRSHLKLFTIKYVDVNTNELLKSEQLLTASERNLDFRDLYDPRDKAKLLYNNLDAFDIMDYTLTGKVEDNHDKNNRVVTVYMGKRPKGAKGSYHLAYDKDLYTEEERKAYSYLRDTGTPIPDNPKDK

Streptococcus = test: GAS UMAA2166 growth inhibition – luminescence, BacTiterGlo, counter-screen for streptokinase expression inhibitor project, dose response (AID 1915); format: functional, organism-based;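 note: potency for reduction of bacterial viability or growth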
[3] = test system: Streptococcus sp. 'group A'; test: Streptococcus pyogenes SK(-)GAS viability under kanamycin – luminescence, BacTiterGlo, confirmation, counter-screen for streptokinase expression inhibitor project, dose response (AID 1900); format: functional, organism-based
[4] = viability of uninfected HEp-2 cells – cell-based, HTS, cytotoxicity control for RSV inhibitor project, dose response (AID 2410); format: functional; conditions: human respiratory syncytial virus
Cytochrome P450 3A4 = Cytochrome P450 3A4 (Homo sapiens, UniProt P08684);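 note: CYP3A4 tested as one member of a cytochrome P450 panel screen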
Chain of Cytochrome P450 3A4 (P08684 whole entry): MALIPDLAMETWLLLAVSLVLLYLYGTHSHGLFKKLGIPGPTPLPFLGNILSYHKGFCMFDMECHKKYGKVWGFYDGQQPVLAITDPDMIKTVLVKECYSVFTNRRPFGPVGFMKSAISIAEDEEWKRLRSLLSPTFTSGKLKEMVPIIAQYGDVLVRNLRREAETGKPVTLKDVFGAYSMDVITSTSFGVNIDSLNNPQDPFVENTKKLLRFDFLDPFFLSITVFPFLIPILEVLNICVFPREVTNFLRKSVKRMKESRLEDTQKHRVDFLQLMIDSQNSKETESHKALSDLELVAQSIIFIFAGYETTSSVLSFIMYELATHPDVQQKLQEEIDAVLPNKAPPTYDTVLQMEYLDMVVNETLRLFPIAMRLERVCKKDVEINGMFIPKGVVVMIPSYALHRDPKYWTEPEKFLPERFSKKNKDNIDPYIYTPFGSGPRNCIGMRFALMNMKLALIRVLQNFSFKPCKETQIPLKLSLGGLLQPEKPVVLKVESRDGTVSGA

Cytochrome P450 2C19 = Cytochrome P450 2C19 (Homo sapiens, UniProt P33261); test: Cytochrome panel assay with activity outcomes. Panel member name: p450-cyp2c19 Compounds with AC50 equal or less than 10 uM are considered active; format: functional; conditions: read-out: AC50
Chain of Cytochrome P450 2C19 (P33261 whole entry): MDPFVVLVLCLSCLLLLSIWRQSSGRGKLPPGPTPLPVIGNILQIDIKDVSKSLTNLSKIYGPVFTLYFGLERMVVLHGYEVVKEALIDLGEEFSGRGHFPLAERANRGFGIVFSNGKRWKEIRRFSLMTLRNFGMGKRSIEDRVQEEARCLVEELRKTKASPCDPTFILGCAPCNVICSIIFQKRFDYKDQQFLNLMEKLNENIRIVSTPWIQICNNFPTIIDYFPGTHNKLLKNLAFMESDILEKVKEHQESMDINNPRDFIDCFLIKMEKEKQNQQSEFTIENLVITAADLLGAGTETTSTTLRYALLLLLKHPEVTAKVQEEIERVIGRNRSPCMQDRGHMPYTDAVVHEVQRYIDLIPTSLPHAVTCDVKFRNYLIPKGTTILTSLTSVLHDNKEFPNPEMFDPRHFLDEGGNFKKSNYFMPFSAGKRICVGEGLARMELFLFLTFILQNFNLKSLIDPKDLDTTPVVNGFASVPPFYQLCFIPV

O=C(COc1cccnc1[N+](=O)[O-])N1N=C(c2ccc(Cl)cc2)CC1c1ccco1 (centres undefined)
EC50 [1]: 2.8 µM (active) | EC50 [2]: > 60 µM (not active)

CCCNC(=O)OC[C@@H]1O[C@H](c2ccccc2)C=C[C@@H]1Oc1ccc(OC)cc1
AC50 (Cytochrome P450 2D6): 3.16 µM (inconclusive)

CCC(=O)N(CCC(Cc1ccccc1)c1ccc2c(c1)OCO2)Cc1ccccc1F (centres undefined)
EC50 (Streptokinase A): 10.7 µM (active) | EC50 (Streptococcus): 40.3 µM (active) | EC50 [3]: 12.2 µM (active)

CC(CC(=O)Nc1nc2ccccc2[nH]1)c1ccccc1 (centres undefined)
EC50 (Streptokinase A): > 150 µM (not active) | EC50 (Streptococcus): > 150 µM (not active) | EC50 [3]: > 150 µM (not active)

N#C/C(=C\c1ccc(OCC(N)=O)cc1)c1ccccc1
CC50 [4]: 36.8 µM (active)

COc1cccc(CC2(CO)CCCN(C/C=C/c3ccccc3OC)C2)c1 (centres undefined)
EC50 [1]: 0.209 µM (active) | EC50 [2]: > 60 µM (inconclusive)

CC(C)(C)c1ccc(O)c(/N=C/c2c(O)ccc3ccccc23)c1
EC50 (Streptokinase A): > 150 µM (not active) | EC50 (Streptococcus): > 150 µM (not active) | EC50 [3]: 5.5 µM (active)

Cc1cccc(-n2nc([N+](=O)[O-])c(NCc3cccnc3)[n+]2[O-])c1
AC50 (Cytochrome P450 2D6): 12.6 µM (inconclusive) | EC50 [1]: 0.582 µM (active) | EC50 [2]: > 60 µM (not active)

S=C(Nc1ccccc1)Nc1ccccc1C#Cc1ccccc1
AC50 (Cytochrome P450 2D6): 15.8 µM (inconclusive) | AC50 (Cytochrome P450 3A4): 7.94 µM (inconclusive)

O=C(COn1nnc2ccc(C(F)(F)F)cc21)Nc1nnc(-c2ccccc2)o1
EC50 (Streptococcus): 3.65 µM (active) | EC50 [3]: 2.77 µM (active)

CCCS(=O)(=O)N1CCCC(C(=O)NCCN(C)Cc2ccccc2)C1 (centres undefined)
AC50 (Cytochrome P450 2D6): 5.01 µM (inconclusive)

Cc1c(-c2cccc(Cl)c2)nc2ccccc2c1C(=O)OCC(=O)Nc1ccc2c(c1)OCO2
CC50 [4]: 16.3 µM (active) | EC50 [1]: 2.22 µM (active) | EC50 [2]: > 60 µM (not active)

COc1ccc2sc(N(CCCN(C)C)C(=O)c3ccc(S(=O)(=O)N4CCCc5ccccc54)cc3)nc2c1
EC50 [1]: 0.139 µM (active) | EC50 [2]: 5.35 µM (active)

Cc1nn(Cc2c(F)c(F)c(F)c(F)c2F)c(C)c1NC(=O)c1ccc(COc2ccc(Cl)cc2Cl)o1
EC50 [1]: 1.11 µM (active) | EC50 [2]: > 60 µM (not active)

COCCNc1nc(-c2ccc(N(C)C)cc2)nc2ccccc12
AC50 (Cytochrome P450 2D6): 39.8 µM (inconclusive)

Cc1cc(Br)ccc1NC(=O)CN1C(=O)C2C3CC(c4ccccc4)C(C3)C2C1=O (centres undefined)
EC50 [1]: 2.6 µM (active) | EC50 [2]: > 60 µM (not active)

c1ccc2sc(SCSc3nc4ccccc4s3)nc2c1
EC50 (Streptokinase A): > 150 µM (not active) | AC50 (Cytochrome P450 2D6): 2.51 µM (inconclusive) | CC50 [4]: 29.5 µM (active) | EC50 (Streptococcus): > 150 µM (not active) | EC50 [3]: > 150 µM (not active)

Cc1ccc(C(c2nnnn2C2CCCC2)N2CCN3CCCC3C2)cc1 (centres undefined)
AC50 (Cytochrome P450 2C19): 31.6 µM (inconclusive)

CCc1ncc(CO)n1Cc1cccc2ccccc12
AC50 (Cytochrome P450 2C19): 0.398 µM (inconclusive)

COC(=O)[C@@]1(Cc2ccc(OC)cc2)[C@H]2c3cc(C(=O)N4CCCC4)n(CCc4ccc(O)c(O)c4)c3C[C@H]2CN1C(=O)c1ccccc1
AC50 (Cytochrome P450 2D6): 39.8 µM (inconclusive)

COc1ccc(C2N=C(N)N=C(N)N2c2ccccc2OC)cc1OC (centres undefined)
AC50 (Cytochrome P450 2C19): 39.8 µM (inconclusive)

Nc1cc(Cl)nc(N/N=C/c2ccccc2[N+](=O)[O-])n1
AC50 (Cytochrome P450 2C19): 8.91 µM (inconclusive)

Cc1ccc(C)c(/C=N/NC(=S)NCCc2ccccc2)c1
EC50 (Streptokinase A): > 150 µM (not active) | EC50 (Streptococcus): > 150 µM (not active) | EC50 [3]: 32.3 µM (active)

COc1ccccc1-c1cc(-c2ccccc2)nc(SCC(=O)O)c1C#N
EC50 (Streptokinase A): 1.72 µM (active) | EC50 (Streptococcus): 13.4 µM (active) | EC50 [3]: 3.36 µM (active)

Cc1ccc(S(=O)(=O)Nc2ccc(Cl)cc2)cc1NC(=O)c1cc2c(s1)CCCC2
EC50 (Streptokinase A): > 150 µM (not active) | EC50 [1]: 1.18 µM (active) | EC50 (Streptococcus): 14.9 µM (active) | EC50 [2]: 25.8 µM (active) | EC50 [3]: 4.39 µM (active)

COc1ccc(CNc2cc(-c3ccccc3Cl)ncn2)c(OC)c1
AC50 (Cytochrome P450 2D6): 39.8 µM (inconclusive)

Cn1c(S)nnc1-c1cc(Br)ccc1O
EC50 (Streptococcus): > 150 µM (not active) | EC50 [3]: 11 µM (active)

COc1ccc(OC)c(-c2cc(C(=O)Nc3cccc(Cl)c3)no2)c1
EC50 [1]: 2.43 µM (active) | EC50 [2]: > 30 µM (not active)

Cn1nc(C(=O)NC2CCCCC2)c2ccccc2c1=O
AC50 (Cytochrome P450 2D6): 10 µM (inconclusive) | AC50 (Cytochrome P450 3A4): 5.01 µM (inconclusive)

C/C(CCN1CCCc2nc(C)c(C)cc21)=N\OC[C@@H](O)COCc1ccco1
AC50 (Cytochrome P450 2D6): 3.16 µM (inconclusive)

O=c1c(CCc2ccccc2)nc2cnc(N3CCNCC3)nc2n1C1CC1
AC50 (Cytochrome P450 2D6): 39.8 µM (inconclusive) | AC50 (Cytochrome P450 3A4): 12.6 µM (inconclusive)

CC[C@]1(c2cccc(O)c2)CCCCN(C)C1
AC50 (Cytochrome P450 2D6): 10 µM (inconclusive)

Cc1c(-c2ccc(O)cc2)nn(-c2ccc(O)cc2)c1-c1ccc(OCCN2CCCCC2)cc1
AC50 (Cytochrome P450 3A4): 3.16 µM (inconclusive)

COc1ccccc1N1CCN(C/C=C/c2ccc(N(C)C)cc2)CC1
EC50 [1]: 1.46 µM (active) | EC50 [2]: > 60 µM (not active)

C/C(=N\NC(N)=O)c1ccccc1Cl
CC50 [4]: 19.4 µM (active)

O=c1cnc2cnc(N3CCNCC3)nc2n1Cc1cccs1
AC50 (Cytochrome P450 2D6): 20 µM (inconclusive) | AC50 (Cytochrome P450 3A4): 15.8 µM (inconclusive)

CCSc1nnc(NC(=O)c2nc(-c3ccccc3)n(-c3ccccc3)n2)s1
EC50 (Streptokinase A): 20.2 µM (active) | EC50 (Streptococcus): 16.5 µM (active) | EC50 [3]: 7.28 µM (active)

CCOC(=O)c1c(-c2cccs2)csc1NC(=O)C(C)(C)C
CC50 [4]: 49.8 µM (active)

COc1ccc(N2CCN(CC(=O)Nc3nc4c(s3)CC(C)CC4)CC2)cc1 (centres undefined)
EC50 (Streptokinase A): > 150 µM (not active) | EC50 (Streptococcus): > 150 µM (not active) | EC50 [3]: 23.8 µM (active)

COc1ccccc1N(CC(=O)N/N=C/c1ccc(OCC(=O)NCc2ccco2)cc1)S(=O)(=O)c1ccc(C)cc1
CC50 [4]: 42.5 µM (active)

CC1Cc2cc(S(=O)(=O)N3CCCCC3C)ccc2N1C(=O)C1CCC1 (centres undefined)
CC50 [4]: 20.8 µM (active)

COc1cccc(-c2nccc(NCc3cccnc3)n2)c1
AC50 (Cytochrome P450 2D6): 25.1 µM (inconclusive)

CN(C)Cc1ccccc1-c1nccc(Nc2ccc(F)cc2)n1
AC50 (Cytochrome P450 3A4): 15.8 µM (inconclusive)

COc1ccc(/C=C2\SC(=O)N(CCNC(=O)C3CC(=O)N(c4ccccc4)C3)C2=O)cc1 (centres undefined)
AC50 (Cytochrome P450 2D6): 20 µM (inconclusive)

Cc1ccccc1S(=O)(=O)c1c(C)cc(-c2ccccc2)nc1O
AC50 (Cytochrome P450 3A4): 28.2 µM (inconclusive)

N#Cc1cccc(NC(=O)N2CC[C@@]3(CCCNC3)C2)c1
AC50 (Cytochrome P450 3A4): 25.1 µM (inconclusive)

COc1ccc(N2CC(C(=O)Nc3nnc(SCc4cccnc4)s3)CC2=O)cc1 (centres undefined)
EC50 (Streptokinase A): > 150 µM (not active) | EC50 (Streptococcus): > 150 µM (not active) | EC50 [3]: > 150 µM (not active)

CNc1ccnc(-c2ccccc2C(F)(F)F)n1
AC50 (Cytochrome P450 2C19): 25.1 µM (inconclusive) | AC50 (Cytochrome P450 3A4): 25.1 µM (inconclusive)

COc1ccc(C2C(=O)N(CCc3ccccc3)CC(=O)N2C2CCCC2)cc1 (centres undefined)
AC50 (Cytochrome P450 2D6): 14.1 µM (inconclusive)

O=c1c(-c2ccc(F)cc2)nc2cncnc2n1-c1ccccc1
AC50 (Cytochrome P450 2D6): 20 µM (inconclusive) | AC50 (Cytochrome P450 3A4): 12.6 µM (inconclusive)

Oc1ccc(C[C@H]2CN=C(S)N2CCc2cc(C(F)(F)F)cc(C(F)(F)F)c2)cc1
CC50 [4]: 28.9 µM (active)

Brc1ccc(-c2noc(CCc3ccccc3)n2)cc1
CC50 [4]: 47.7 µM (active)

Cc1ccc(Sc2cc(C(=O)NCCCN(C)C)c3ccccc3n2)cc1
EC50 [1]: 0.133 µM (active) | EC50 [2]: 14.6 µM (active)

O=C(Nc1ccccc1)N1CCCC2(CCN(C(=O)c3cccc(F)c3)CC2)C1
AC50 (Cytochrome P450 2C19): 10 µM (inconclusive)

CCCCCC(=O)Nc1cccc(C2=NOC3(C2)C[C@@H](C(N)=O)N(C(=O)c2ccc(Cl)cc2)C3)c1 (some centres undefined)
EC50 [1]: 0.374 µM (active) | EC50 [2]: > 30 µM (not active)

CN(C)c1ccc(/C=N\NC(=O)c2cnc3ccccc3c2)cc1
AC50 (Cytochrome P450 3A4): 3.98 µM (inconclusive)

CC(C)=CCC/C(C)=C/CO/N=C1/C[C@@H](O)[C@@H](O)[C@@H]2[C@H]3C(=O)N(c4ccc(F)cc4F)C(=O)[C@@H]3CC[C@H]12
AC50 (Cytochrome P450 3A4): 3.98 µM (inconclusive)

Cc1c(Cc2ccccc2)c(=O)oc2cc(OCc3ccc(C(=O)O)cc3)ccc12
EC50 (Streptokinase A): > 150 µM (not active) | EC50 (Streptococcus): > 50 µM (not active) | EC50 [3]: 7.39 µM (active)

CCc1ccc(C2=Nn3c(nnc3-c3cccs3)SC2)cc1
AC50 (Cytochrome P450 2C19): 5.62 µM (inconclusive)

CN(C)c1ncc2nc(-c3cccs3)c(=O)n(Cc3cccs3)c2n1
AC50 (Cytochrome P450 3A4): 3.16 µM (inconclusive)

Nc1ncnc(Nc2cccc(Cl)c2Cl)n1
CC50 [4]: 26.1 µM (active)

CCCN1CCN(CCCNC(=O)Cn2nc(-c3ccc(C)cc3)ccc2=O)CC1
AC50 (Cytochrome P450 2D6): 20 µM (inconclusive)

From ChEMBL document CHEMBL1201862, “PubChem BioAssay data set” (2004)
